Patent US5633277A, “Sulfonamide aminomethylene derivatives as immunosuppressants” (Miles Inc., priority 1995, dated 1997)

Assays:
[1] = test system: human T-cells; assay: Suppression of Human T-Cell Proliferation Assay (mitogen-induced, [3H]-thymidine incorporation); assay type: cell-based; details: for IC50: Homo sapiens, T-cell, 72 hours incubation, mitogen stimulated, read-out: IC50 (inhibition of [3H]-thymidine incorporation of T-cells by 50%)
Excerpt: 2) Human T Lymphocyte Inhibition
Inhibition of mitogen-induced T-cell proliferation can be used to profile immunosuppressive activity of test compounds. In the description of the assay which follows, mitogen-induced T-cell proliferation was used to test the inhibitory potencies of select compounds of the present invention.
In an assay similar to that described by Bradley in Mishell et al. (Eds.), 1980, Selected Methods in Cellular Immunology, pp 156-161, W. H. Freeman & Co., San Fransisco, Calif., T-cells were stimulated by incubation with phytohemagglutinin (PPIA) which binds to cell surface molecules, including the T-cell receptor. This stimulation results in proliferation which can be measured by incorporation of [^3 H]-thymidine into cellular DNA.
The immunosuppressive properties of the compounds of the present invention can be determined by adding various concentrations of the compounds to these cultures and measuring the effect on T-cell proliferation.
Suppression of Human T-Cell Proliferation Assay
Fresh LeukoPaks were obtained from the New York Blood Center, New York, N.Y. The cells, including erythrocytes and leukocytes, were diluted with Hank's Balanced Salt Solution (HBSS) (GIBCO, Grand Island, N.Y.) and layered over Lymphoprep (Nycomed Pharma AS, Oslo, Norway) in sterile 50 ml conical centrifuge tubes. Lymphocytes were isolated at the Hank's/Nycomed interface after centrifugation at 2000×g, 4° C. for 15 min. The lymphocytes were washed with Minimal Essential Medium (GIBCO) containing 2% fetal bovine serum (FBS) (Sigma Chemical Co., St. Louis, Mo.), 1% HEPES buffer (GIBCO) and 1% Penicillin-Stretomycin solution (GIBCO).
T-cells were further purified essentially by sheep erythrocyte (SRBC) rosetting as described by Morimoto et al., 1983, J. Immunol. 130:157. The isolated lymphocytes were adjusted to 2×10^7 cells/ml and 5 ml aliquots of the cell suspension were incubated for 10 minutes at room temperature with 5 ml of a 5% SRBC (Cappel, Organon Technika Corp., West Chester, Pa.) suspension. The cells were gently pelleted by centrifugation at 300 rpm for 10 minutes, followed by a 1 hour incubation at room temperature to allow rosette formation. The cells were gently resuspended,layered over Lymphoprep and centrifuged for 30 minutes at 500×g. The pellet, containing rosetted T-cells and SRBC was treated with ice cold buffered ammonium chloride (GIBCO) to lyse the erythrocytes. T-cells were washed twice with HBSS.
Purified T-cells were resuspended at 2×10^6 cells/ml in complete culture medium composed of RPMI-1640 (Whittaker Bioproducts, Walkerville, Md.) with 10% FBS (Sigma), 2 mM L-glutamine (GIBCO), 1% Penicillin-Streptomycin (GIBCO) and 15 mM HEPES (GIBCO). In 96-well plates (Becton Dickinson, Lincoln Park, N.J.), 0.1 ml aliquots of T-cell suspension were mixed with 0.05 ml of 40 μg/ml PPIA-M (Sigma). The compounds of this invention were dissolved in dimethylsulfoxide at 10 mM and various dilutions in complete medium were added in duplicate wells (0.05 ml/well). The plates were incubated at 37° C. in a humidified atmosphere of 5% carbon dioxide and 95% air for 72 hours.
Proliferation was assessed by measurement of [3H]-thymidine incorporation. During the last 6 hours of incubation, the cells were pulse labelled with 1 μCi/well of [3H]-thymidine (New England Nuclear, Boston, Mass.). The cells were harvested onto glass fiber paper using a plate harvester and the radioactivity incorporated into cellular DNA corresponding to individual wells was measured by standard liquid scintillation counting methods. The mean counts per minute (CPM) of replicate wells was calculated and linear regression analysis of mean CPM versus compound concentration was used to determine the concentration of compound which would inhibit [^3 H]-thymidine incorporation of T-cells by 50% (IC50).

[2] = molecular target: FKBP (Homo sapiens, UniProt P62942); assay: PPIase Inhibition Assay; assay type: biochemical
Procedure: 1) Inhibition of PPlase Activity
This assay follows in principle the procedure described in Kofron et al., 1991, Biochemistry 30:6127. The three main reagents used are PPIase, a substrate for PPIase, and a selected inhibitor compound of the present invention. The basic principle behind this assay is the conversion of the cis isomer of the substrate to the trans form, which conversion is catalyzed by PPIase. Essentially, inhibition of this PPIase activity is measured for the selected compounds. A peptide chymotrypsin substrate containing a proline in the P2 position is only cleaved by chymotrypsin when the Phe-Pro bond is in the trans isomeric configuration. In the presence of excess chymotrypsin, all of the trans peptide isomers are cleaved within approximately five seconds, leaving only cis forms.
The cis peptide will spontaneously convert to the trans isomer at a slow rate. The cis to trans conversion is catalyzed by isomerases at a much faster rate than this spontaneous conversion. Proteins with PPIase activity are examples of such isomerases. After isomerization, the peptide is cleaved by chymotrypsin releasing p-nitroaniline which can be monitored at 390 nm. The rate of release is then calculated using a first order rate plus offset equation utilizing the ENZFITTER program (Leatherbarrow, BIOSOFT, Cambridge, United Kingdom).
In a plastic cuvette are added 950 ul of ice cold assay buffer (25 mM HEPES, pH 7.8, 100 mM NaCl), 10 uL of FKBP (2.5 uM in 10 mM Tris-Cl pH 7.5,100 mM NACl, 1 mM dithiothreitol), 25 ul of chymotrypsin (50 mg/ml in 1 mM HCl) and 10 ul of the test compound at various concentrations in dimethyl sulphoxide. The reaction is initiated by addition of 5 ul of substrate (Succinyl-Ala-Phe-Pro-Phe-para-nitroanilide, 5 mg/ml in 235 mM LiCl in trifluoroethanol).
The absorbance at 390 nm versus time is monitored for 90 sec using a Beckman DU70 spectrophotometer. The absorbance versus time data files are transferred to an IBM XT computer and the rate constants determined using the commercial Enzfitter program. For each set of data, the uncatalyzed rate of conversion is measured and the uninhibited enzymatic rate determined. The data are expressed as % Inhibition and are calculated as follows: [formula] where kobs is the rate in the presence of a selected test compound, kuncat is the rate in the absence of enzyme, and kuninh is the rate in the presence of enzyme and absence of inhibitor. Data are plotted as percent inhibition versus concentration of inhibitor. The values of the concentration of inhibitor required for 50% inhibition of enzyme activity (IC50) were determined by nonlinear least squares regression analysis.

Sequence of FKBP (P62942 whole entry): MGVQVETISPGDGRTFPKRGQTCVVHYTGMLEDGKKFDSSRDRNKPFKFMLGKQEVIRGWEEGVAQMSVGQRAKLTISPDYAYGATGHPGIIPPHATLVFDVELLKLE

IC50 [2] [µM]	SMILES	IC50 [1] [µM]	inhibition of mitogen-induced T-cell proliferation (in words) [1]
> 5	Cc1ccc(S(=O)(=O)N[C@@H](CC(C)C)CN2CCC[C@H]2C(=O)NCCCCc2ccccc2)cc1 [Example 2, 1-[2-(S)-(Toluene-4-sulfonylamino)-4-methylpentyl]-L-proline 4-Phenylbutylamide]	8	–
3.5	CC(C)C[C@@H](CN1CCC[C@H]1C(=O)NCCCCc1ccccc1)NS(C)(=O)=O [Example 1, 1-[2-(S)-Methanesulfonylamino-4-methylpentyl]-L-proline 4-Phenylbutylamide]	2	inhibited mitogen induced T-cell proliferation
> 5	CC(C)C[C@@H](CN1CCC[C@H]1C(=O)NCCCCc1ccccc1)NS(=O)(=O)c1cccs1 [Example 5, 1-[2-(S)-(Thiophene-2-sulfonylamino)-4-methylpentyl]-L-proline 4-Phenylbutylamide]	3	–

The remaining lines, values behind:

SMILES	IC50 [2] [µM]	IC50 [1] [µM]	inhibition of mitogen-induced T-cell proliferation (in words) [1]
CC(C)C[C@@H](CN1CCC[C@H]1C(=O)NCCCCc1ccccc1)NS(=O)(=O)/C=C/c1ccccc1 [Example 6, 1-[2-(S)-(2-phenyl-ethenesulfonylamino)-4-methylpentyl]-L-proline 4-Phenylbutylamtde]	> 5	5	–
CC(C)C[C@@H](CN1CCC[C@H]1C(=O)NCCCCc1ccccc1)NS(=O)(=O)c1c(C(C)C)cc(C(C)C)cc1C(C)C [Example 10, 1-[2-(S)-(2',4',6'-Triisopropylbenzenesulfonylamino)-4-methylpentyl]-L-proline 4-Phenylbutylamide]	> 5	4	–
CC[C@H](C)[C@H](NC(=O)[C@@H]1CCCCN1C[C@@H](NS(C)(=O)=O)[C@@H](C)CC)C(=O)NCc1ccccc1 [Example 11]	> 5	> 15	–
CC(C)C[C@@H](CN1CCC[C@H]1C(=O)NCCCCc1ccccc1)NS(=O)(=O)c1ccc(-c2ccon2)s1 [Example 8, 1-[2-(S)-(5 - [Isoxazol-25-yl]-thiophene-2-sulfonylamino)-4-methylpentyl]-L-proline 4-Phenylbutylamide]	> 5	1	–
CC(C)C[C@@H](CN1CCC[C@H]1C(=O)NCCCCc1ccccc1)NS(=O)(=O)c1cccc2cccnc12 [Example 3, 1-[2-(S)-(Quinoline-8-sulfonylamino)-4-methylpentyl]-L-proline 4-Phenylbutylamide]	> 5	5	inhibited mitogen induced T-cell proliferation
CC(=O)Nc1nc(C)c(S(=O)(=O)N[C@@H](CC(C)C)CN2CCC[C@H]2C(=O)NCCCCc2ccccc2)s1 [Example 4, 1-[2-(S)-(2-Acetylamino-4-methyl-S-thiazolesulfonylamino)-4-methylpentyl]-L -proline 4-Phenylbutylamide]	> 5	2	–
CC(C)C[C@@H](CN1CCC[C@H]1C(=O)NCCCCc1ccccc1)NS(=O)(=O)CC12CCC(CC1=O)C2(C)C (single isomer, unassigned) [Example 7]	> 5	2	–
